In ChEMBL document CHEMBL4004889, “Discovery of selective ATP-competitive eIF4A3 inhibitors” (Bioorg Med Chem, 2017):

What was measured:
[1] = target: T1, Eukaryotic initiation factor 4A-III (Homo sapiens, UniProt P38919); experiment: Inhibition of MLN51-induced full length recombinant human N-terminal His6/SUMO-tagged eIF4A3 RNA dependent ATPase activity expressed in Escherichia coli BL21(DE3) using 60 ug/ml single stranded poly(U) RNA as substrate after 30 mins by ADP-Glo luminescence assay
[2] = target: T1, Eukaryotic initiation factor 4A-III; experiment: Binding affinity to full length recombinant human N-terminal His6/SUMO-tagged eIF4A3 expressed in Escherichia coli BL21(DE3) administered for 60 to 120 secs by surface plasmon resonance biosensing assay
[3] = target: Eukaryotic initiation factor 4A-I (Homo sapiens, UniProt P60842); experiment: Inhibition of eIF4G-induced full length recombinant human N-terminal His6/SUMO-tagged eIF4A1 RNA dependent ATPase activity expressed in Escherichia coli BL21(DE3) using single stranded poly(U) RNA as substrate after 40 mins by ADP-Glo luminescence assay
[4] = target: T1, Eukaryotic initiation factor 4A-III; experiment: ATP competitive inhibition of MLN51-induced full length recombinant human N-terminal His6/SUMO-tagged eIF4A3 expressed in Escherichia coli BL21(DE3) using varying ATP levels after 30 mins by ADP-Glo luminescence assay
[5] = target: U5 small nuclear ribonucleoprotein 200 kDa helicase (Homo sapiens, UniProt O75643); experiment: Inhibition of full length recombinant human N-terminal His-tagged BRR2 RNA dependent ATPase activity expressed in baculovirus infected Sf9 insect cells using single stranded poly(U) RNA as substrate after 30 mins by ADP-Glo luminescence assay
[6] = target: T1, Eukaryotic initiation factor 4A-III
Description: Binding affinity to full length recombinant human N-terminal His6/SUMO-tagged eIF4A3 expressed in Escherichia coli BL21(DE3) assessed as change in enthalpy by isothermal titration calorimetric method

[7] = target: T1, Eukaryotic initiation factor 4A-III; remark: listed apart in the source
Description: Binding affinity to full length recombinant human N-terminal His6/SUMO-tagged eIF4A3 expressed in Escherichia coli BL21(DE3) assessed as change in Gibbs free energy by isothermal titration calorimetric method

[8] = target: T1, Eukaryotic initiation factor 4A-III; remark: listed apart in the source
Description: Binding affinity to full length recombinant human N-terminal His6/SUMO-tagged eIF4A3 expressed in Escherichia coli BL21(DE3) assessed as dissociation half-life administered for 60 to 120 secs by surface plasmon resonance biosensing assay

[9] = target: Eukaryotic initiation factor 4A-II (Homo sapiens, UniProt Q14240); experiment: Inhibition of eIF4G-induced eIF4A2 (unknown origin) RNA dependent ATPase activity expressed in Escherichia coli BL21(DE3) using single stranded poly(U) RNA as substrate after 40 mins by ADP-Glo luminescence assay
[10] = target: T1, Eukaryotic initiation factor 4A-III; experiment: Binding affinity to full length recombinant human N-terminal His6/SUMO-tagged eIF4A3 expressed in Escherichia coli BL21(DE3) by isothermal titration calorimetric method
[11] = target: T1, Eukaryotic initiation factor 4A-III; remark: listed apart in the source
Description: Binding affinity to full length recombinant human N-terminal His6/SUMO-tagged eIF4A3 expressed in Escherichia coli BL21(DE3) assessed as change in entropy by isothermal titration calorimetric method

[12] = target: T2, ATP-dependent RNA helicase DHX29 (Homo sapiens, UniProt Q7Z478); experiment: Inhibition of full length recombinant human N-terminal FLAG-His-tagged DHX29 RNA dependent ATPase activity expressed in baculovirus infected Sf9 insect cells using single stranded poly(U) RNA as substrate after 30 mins by ADP-Glo luminescence assay
T2 sequence (Q7Z478 whole entry): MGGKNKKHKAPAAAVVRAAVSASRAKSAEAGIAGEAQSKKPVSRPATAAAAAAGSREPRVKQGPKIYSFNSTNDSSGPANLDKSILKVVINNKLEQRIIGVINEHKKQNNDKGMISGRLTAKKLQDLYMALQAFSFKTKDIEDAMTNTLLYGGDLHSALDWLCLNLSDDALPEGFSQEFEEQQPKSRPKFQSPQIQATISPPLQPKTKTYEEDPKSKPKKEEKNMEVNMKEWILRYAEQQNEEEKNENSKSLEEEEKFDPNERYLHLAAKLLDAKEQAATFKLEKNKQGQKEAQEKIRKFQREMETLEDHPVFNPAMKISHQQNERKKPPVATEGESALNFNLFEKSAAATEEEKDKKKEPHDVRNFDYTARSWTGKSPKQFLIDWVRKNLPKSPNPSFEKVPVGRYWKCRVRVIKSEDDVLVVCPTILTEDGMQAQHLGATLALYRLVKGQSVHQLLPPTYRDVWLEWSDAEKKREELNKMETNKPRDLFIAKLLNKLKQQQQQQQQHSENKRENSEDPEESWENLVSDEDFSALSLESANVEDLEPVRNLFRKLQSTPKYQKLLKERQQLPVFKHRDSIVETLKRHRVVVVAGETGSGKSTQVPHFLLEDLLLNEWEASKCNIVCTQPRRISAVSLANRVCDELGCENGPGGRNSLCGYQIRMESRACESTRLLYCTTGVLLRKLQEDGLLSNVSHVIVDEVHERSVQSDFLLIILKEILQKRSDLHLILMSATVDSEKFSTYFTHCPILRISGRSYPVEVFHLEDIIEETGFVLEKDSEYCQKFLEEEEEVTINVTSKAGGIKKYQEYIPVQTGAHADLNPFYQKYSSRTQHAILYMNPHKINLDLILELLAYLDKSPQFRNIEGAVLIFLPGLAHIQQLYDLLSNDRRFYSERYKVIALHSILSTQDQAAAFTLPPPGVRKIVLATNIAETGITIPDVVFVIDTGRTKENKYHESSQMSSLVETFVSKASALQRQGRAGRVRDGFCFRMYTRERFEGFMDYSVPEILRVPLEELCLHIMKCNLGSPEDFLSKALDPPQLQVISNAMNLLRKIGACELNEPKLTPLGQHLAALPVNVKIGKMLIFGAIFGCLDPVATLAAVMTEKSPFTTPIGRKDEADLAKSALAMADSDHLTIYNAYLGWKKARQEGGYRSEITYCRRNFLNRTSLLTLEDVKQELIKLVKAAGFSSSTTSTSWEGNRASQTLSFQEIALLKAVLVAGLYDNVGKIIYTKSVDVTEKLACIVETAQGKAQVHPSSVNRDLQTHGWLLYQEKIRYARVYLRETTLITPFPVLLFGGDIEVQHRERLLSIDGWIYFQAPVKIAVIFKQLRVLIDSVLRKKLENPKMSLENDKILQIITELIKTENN

[13] = target: T1, Eukaryotic initiation factor 4A-III; experiment: Inhibition of MLN51-induced full length recombinant human N-terminal His6/SUMO-tagged eIF4A3 expressed in Escherichia coli BL21(DE3) using 1.5 ug/ml single stranded poly(U) RNA after 45 mins by ADP-Glo luminescence assay

T1 sequence (P38919 whole entry): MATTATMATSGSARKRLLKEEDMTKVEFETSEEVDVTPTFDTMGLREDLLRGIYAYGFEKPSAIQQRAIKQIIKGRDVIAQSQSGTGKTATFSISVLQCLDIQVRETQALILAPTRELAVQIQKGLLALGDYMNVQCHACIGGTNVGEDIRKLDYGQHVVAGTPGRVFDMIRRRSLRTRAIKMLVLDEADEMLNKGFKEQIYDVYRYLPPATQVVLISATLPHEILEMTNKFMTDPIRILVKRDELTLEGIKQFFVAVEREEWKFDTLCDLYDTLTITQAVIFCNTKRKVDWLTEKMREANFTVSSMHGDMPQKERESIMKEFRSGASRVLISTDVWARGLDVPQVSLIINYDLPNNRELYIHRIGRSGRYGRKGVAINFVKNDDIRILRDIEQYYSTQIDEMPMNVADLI
Sequence of Eukaryotic initiation factor 4A-I (P60842 whole entry): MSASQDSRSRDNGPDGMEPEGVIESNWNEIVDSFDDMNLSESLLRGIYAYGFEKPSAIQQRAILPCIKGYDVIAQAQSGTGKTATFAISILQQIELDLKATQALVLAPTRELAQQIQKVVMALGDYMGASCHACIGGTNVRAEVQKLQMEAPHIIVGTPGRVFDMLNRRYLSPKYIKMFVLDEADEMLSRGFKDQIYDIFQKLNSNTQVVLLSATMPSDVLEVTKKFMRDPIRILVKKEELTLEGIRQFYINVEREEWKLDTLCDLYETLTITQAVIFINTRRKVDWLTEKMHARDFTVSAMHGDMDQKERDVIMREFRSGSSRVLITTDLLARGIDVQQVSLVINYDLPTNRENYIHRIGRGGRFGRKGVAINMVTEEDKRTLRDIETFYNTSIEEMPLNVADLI
Sequence of Eukaryotic initiation factor 4A-II (Q14240 whole entry): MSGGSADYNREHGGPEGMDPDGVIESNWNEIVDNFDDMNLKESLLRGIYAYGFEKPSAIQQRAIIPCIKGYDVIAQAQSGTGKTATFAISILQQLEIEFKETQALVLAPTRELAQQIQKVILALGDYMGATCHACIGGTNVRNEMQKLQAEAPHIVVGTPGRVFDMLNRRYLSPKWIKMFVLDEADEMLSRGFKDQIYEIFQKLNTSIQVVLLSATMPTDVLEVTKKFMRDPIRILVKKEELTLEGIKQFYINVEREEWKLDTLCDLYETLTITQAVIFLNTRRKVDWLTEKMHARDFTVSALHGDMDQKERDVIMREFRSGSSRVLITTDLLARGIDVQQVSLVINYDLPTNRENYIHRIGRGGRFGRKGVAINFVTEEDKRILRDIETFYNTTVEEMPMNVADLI
Sequence of U5 small nuclear ribonucleoprotein 200 kDa helicase (O75643 whole entry): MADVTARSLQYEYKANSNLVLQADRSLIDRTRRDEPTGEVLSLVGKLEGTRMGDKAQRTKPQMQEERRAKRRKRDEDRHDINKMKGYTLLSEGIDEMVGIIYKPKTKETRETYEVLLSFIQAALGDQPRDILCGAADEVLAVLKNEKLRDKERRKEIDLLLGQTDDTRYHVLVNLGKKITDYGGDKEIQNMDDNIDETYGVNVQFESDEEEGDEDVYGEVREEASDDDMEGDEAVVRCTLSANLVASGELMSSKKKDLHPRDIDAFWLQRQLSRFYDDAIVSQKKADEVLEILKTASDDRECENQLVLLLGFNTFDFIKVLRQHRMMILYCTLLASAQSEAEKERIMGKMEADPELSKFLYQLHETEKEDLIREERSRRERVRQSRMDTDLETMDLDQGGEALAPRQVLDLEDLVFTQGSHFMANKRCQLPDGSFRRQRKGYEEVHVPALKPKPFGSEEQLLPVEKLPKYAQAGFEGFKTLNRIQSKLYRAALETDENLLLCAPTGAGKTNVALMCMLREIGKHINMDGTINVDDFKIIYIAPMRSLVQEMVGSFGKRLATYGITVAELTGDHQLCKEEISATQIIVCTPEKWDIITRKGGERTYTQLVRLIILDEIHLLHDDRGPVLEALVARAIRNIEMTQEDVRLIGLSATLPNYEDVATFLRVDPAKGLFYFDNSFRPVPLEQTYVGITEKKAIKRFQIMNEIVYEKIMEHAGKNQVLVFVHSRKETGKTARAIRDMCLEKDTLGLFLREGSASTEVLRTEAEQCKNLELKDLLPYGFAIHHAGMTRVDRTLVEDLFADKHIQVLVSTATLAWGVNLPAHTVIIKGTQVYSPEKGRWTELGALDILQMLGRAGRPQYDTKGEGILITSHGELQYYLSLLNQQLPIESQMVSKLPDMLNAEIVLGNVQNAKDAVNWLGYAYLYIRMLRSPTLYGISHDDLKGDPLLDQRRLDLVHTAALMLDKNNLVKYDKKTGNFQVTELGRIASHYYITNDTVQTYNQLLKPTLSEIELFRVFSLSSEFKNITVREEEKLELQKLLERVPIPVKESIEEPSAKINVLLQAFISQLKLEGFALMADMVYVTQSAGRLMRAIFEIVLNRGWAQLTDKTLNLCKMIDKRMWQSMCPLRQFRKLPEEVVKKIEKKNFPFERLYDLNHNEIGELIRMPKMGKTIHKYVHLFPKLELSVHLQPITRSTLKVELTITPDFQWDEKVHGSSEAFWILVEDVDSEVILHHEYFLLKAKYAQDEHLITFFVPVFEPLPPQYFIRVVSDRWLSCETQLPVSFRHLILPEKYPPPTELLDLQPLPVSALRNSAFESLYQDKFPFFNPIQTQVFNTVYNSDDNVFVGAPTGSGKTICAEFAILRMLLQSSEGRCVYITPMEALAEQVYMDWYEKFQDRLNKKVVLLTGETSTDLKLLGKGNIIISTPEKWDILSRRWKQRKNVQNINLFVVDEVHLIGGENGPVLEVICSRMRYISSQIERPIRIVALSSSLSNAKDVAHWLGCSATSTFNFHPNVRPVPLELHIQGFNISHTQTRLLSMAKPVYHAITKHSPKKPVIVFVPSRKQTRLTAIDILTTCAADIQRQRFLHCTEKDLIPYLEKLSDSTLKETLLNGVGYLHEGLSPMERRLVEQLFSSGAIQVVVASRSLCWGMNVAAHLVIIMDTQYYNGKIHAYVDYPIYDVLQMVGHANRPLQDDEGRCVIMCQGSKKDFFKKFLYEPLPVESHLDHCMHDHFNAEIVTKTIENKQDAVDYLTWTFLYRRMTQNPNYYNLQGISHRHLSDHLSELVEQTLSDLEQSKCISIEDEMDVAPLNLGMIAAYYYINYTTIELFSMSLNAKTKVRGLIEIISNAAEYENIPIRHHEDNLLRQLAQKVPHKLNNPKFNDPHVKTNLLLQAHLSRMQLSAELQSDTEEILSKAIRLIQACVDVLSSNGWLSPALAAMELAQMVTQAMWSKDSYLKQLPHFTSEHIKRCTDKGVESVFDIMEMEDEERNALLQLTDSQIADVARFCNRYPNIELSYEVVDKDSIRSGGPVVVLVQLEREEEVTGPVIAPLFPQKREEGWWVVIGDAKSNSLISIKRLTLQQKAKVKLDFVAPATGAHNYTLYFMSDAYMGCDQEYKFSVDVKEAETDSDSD

`CCc1ccc2cc(C(=O)O)[nH]c2c1` showed an IC50 [1] of over 100 µM.
`CC(C)c1ccc2cc(C(=O)O)[nH]c2c1` was tested, and the Kd [2] was 5.4 µM and the IC50 [1] was 27 µM.
`Cc1ccc2cc(C(=O)O)[nH]c2c1` gave an IC50 [1] of over 100 µM.
Work on `CC(C)c1ccc2cc(-c3nnn[nH]3)[nH]c2c1` yielded an IC50 [1] of 30 µM.
For `O=C(O)c1cc2ccc(Cl)cc2[nH]1`, the IC50 [1] was over 100 µM.
With `CC(C)c1ccc2c(F)c(C(=O)O)[nH]c2c1` the IC50 [1] was 20 µM.
In the case of `CC(C)c1ccc2cc(C(=O)O)[nH]c2c1F`, the IC50 [1] is reported as 6.9 µM and the IC50 [3] is reported as over 100 µM.
`CC(C)c1cc(F)c2cc(C(=O)O)[nH]c2c1` was tested, and the IC50 [1] was 5 µM.
`CC(C)c1ccc2cc(C(=O)O)[nH]c2c1Cl` showed an IC50 [1] of over 100 µM.
For `CC(C)c1ccc2cc(C(=O)O)n(C)c2c1`, the IC50 [1] was over 100 µM.
`CC(C)c1cc(Cl)c2cc(C(=O)O)[nH]c2c1F` gave a Ki [4] of 0.43 µM, a Kd [2] of 0.2 µM and an IC50 [1] of 0.97 µM. The IC50 [5] was over 100 µM, the IC50 [3] was over 100 µM and the deltaH [6] was -26 kcal/mol. For the same molecule, the deltaG [7] was -9.9 kcal/mol, the T1/2 [8] was 8.9 s and the IC50 [9] was over 100 µM. The Kd [10] was 0.062 µM, the -TdeltaS [11] was 16.1 kcal/mol and the IC50 [12] was over 100 µM. The IC50 [13] was 0.36 µM.
Work on `C[C@H]1C[C@@]2(O[C@H]3C[C@H]4[C@@H]5CC[C@H]6C[C@H](O)CC[C@]6(C)[C@H]5[C@@H](O)C[C@]4(C)[C@H]3[C@@]2(C)O)OC1(C)C` [HIPPURISTANOL] yielded a Kd [2] of 50 µM, an IC50 [1] of 40 µM and an IC50 [5] of over 30 µM. The IC50 [3] was 3.1 µM, the T1/2 [8] was 12.2 s and the IC50 [9] was 18 µM. For the same molecule, the IC50 [12] was over 30 µM.
With `CC(C)c1cccc2cc(C(=O)O)[nH]c12` the IC50 [1] was over 100 µM.
With `CC(C)c1cc2[nH]c(C(=O)O)cc2cc1F` the IC50 [1] was 30 µM.
For `CC(C)c1ccc2cc(C(N)=O)[nH]c2c1`, the IC50 [1] was over 100 µM.
`CC(C)c1ccc2[nH]c(C(=O)O)cc2c1` was tested, and the IC50 [1] was over 100 µM.
In the case of `COC(=O)c1cc2ccc(C(C)C)cc2[nH]1`, the IC50 [1] is reported as over 100 µM.
Molecule `CC(C)c1cc(Cl)c2cc(C(=O)O)[nH]c2c1` has an IC50 [1] of 1.9 µM and an IC50 [3] of over 100 µM.
